{"source": "patent US8288428B2", "about": "“Compounds as cannabinoid receptor ligands” (Abbott Laboratories, priority 2009, dated 2012)", "key": {"animal models of pain": {"system": "animal models of pain", "settings": "animal models of acute thermal, persistent, inflammatory and neuropathic pain; cited from earlier work"}, "rat CB2 receptors": {"target": "T1, rat CB2 receptors (Rattus norvegicus, UniProt Q9QZN9)", "T1 construct": "expressed in transfected cells; membrane preparation", "T1 sequence (Q9QZN9 1-360)": "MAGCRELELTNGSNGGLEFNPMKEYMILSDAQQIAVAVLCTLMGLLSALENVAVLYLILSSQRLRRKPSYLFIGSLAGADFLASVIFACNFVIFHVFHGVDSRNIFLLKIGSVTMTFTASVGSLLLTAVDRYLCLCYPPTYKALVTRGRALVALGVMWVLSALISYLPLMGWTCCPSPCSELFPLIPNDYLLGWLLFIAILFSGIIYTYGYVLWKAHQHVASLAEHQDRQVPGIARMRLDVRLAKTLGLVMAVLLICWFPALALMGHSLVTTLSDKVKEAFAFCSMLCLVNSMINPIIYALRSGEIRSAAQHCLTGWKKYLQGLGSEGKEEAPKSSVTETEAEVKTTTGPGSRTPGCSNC", "assay": "rat CB2 radioligand binding assay", "protocol": "(§1) (i) In Vitro Methods—CB2 and CB1 Radioligand Binding Assays:\n(§2) The CB1 and CB2 radioligand binding assays described herein are utilized to ascertain the selectivity of compounds of the present application for binding to CB2 relative to CB1 receptors.\n(§3) HEK293 cells stably expressing rat CB2 receptors were grown until a confluent monolayer was formed. Briefly, the cells were harvested and homogenized in TE buffer (50 mM Tris-HCl, 1 mM MgCl2, and 1 mM EDTA) using a polytron for 2×10 second bursts in the presence of protease inhibitors, followed by centrifugation at 45,000×g for 20 minutes. The final membrane pellet was re-homogenized in storage buffer (50 mM Tris-HCl, 1 mM MgCl2, and 1 mM EDTA and 10% sucrose) and frozen at −78° C. until used. Saturation binding reactions were initiated by the addition of membrane preparation (protein concentration of 20 μg/well for rat CB2) into wells of a deep well plate containing [^3H]CP-55,940 (120 Ci/mmol, a nonselective CB agonist commercially available from Tocris) in assay buffer (50 mM Tris, 2.5 mM EDTA, 5 mM MgCl2, and 0.5 mg/mL fatty acid free BSA, pH 7.4). After 45 min incubation at 30° C., binding reaction was terminated by the addition of 300 μL/well of cold assay buffer followed by rapid vacuum filtration through a UniFilter-96 GF/C filter plates (pre-soaked in 1 mg/mL BSA for 2 hours). The bound activity was counted in a TopCount using Microscint-20. Saturation experiments were conducted with twelve concentrations of [^3H]CP-55,940 ranging from 0.01 to 8 nM. Competition experiments were conducted with 0.5 nM [^3H]CP-55,940 and five concentrations of displacing ligands selected from the range of 0.01 nM to 10 μM. The addition of 10 μM unlabeled CP-55,940 (Tocris, Ellisville, Mo.) was used to assess nonspecific binding."}, "human CB2 receptors": {"target": "T2, human CB2 receptors (Homo sapiens, UniProt P34972)", "T2 construct": "expressed in transfected cells; membrane preparation", "T2 sequence (P34972 whole entry)": "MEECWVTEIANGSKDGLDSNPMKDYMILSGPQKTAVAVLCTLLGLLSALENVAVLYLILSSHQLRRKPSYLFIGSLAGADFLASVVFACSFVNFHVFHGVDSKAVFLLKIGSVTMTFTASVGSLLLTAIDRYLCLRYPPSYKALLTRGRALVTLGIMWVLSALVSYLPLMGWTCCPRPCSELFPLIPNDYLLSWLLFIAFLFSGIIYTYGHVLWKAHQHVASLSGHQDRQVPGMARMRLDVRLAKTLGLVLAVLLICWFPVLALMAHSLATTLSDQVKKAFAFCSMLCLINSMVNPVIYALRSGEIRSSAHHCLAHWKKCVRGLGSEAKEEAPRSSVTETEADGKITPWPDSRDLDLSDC", "assay": "human CB2 radioligand binding assay", "protocol": "as §1, §2\nas §3, with “expressing human” for “expressing rat”, “of 5” for “of 20”, “for human” for “for rat”, “After 90” for “After 45”, “concentrations (0.01” for “concentrations of displacing ligands selected from the range of 0.01”, “10 μM) of displacing ligands.” for “10 μM.”"}, "rodent models of pain": {"system": "rodent models of pain", "settings": "rodent models of neuropathic, incisional, chronic and acute inflammatory pain; cited from earlier work"}, "[1]": {"system": "rat formalin model of persistent pain", "settings": "cited from earlier work"}, "microglial activation": {"system": "microglial activation", "settings": "in vitro; cited from earlier work"}, "[2]": {"system": "apolipoprotein E knockout mice", "settings": "cited from earlier work"}, "osteoclast activity": {"system": "osteoclast activity", "settings": "cited from earlier work"}, "[3]": {"system": "ovariectomy-induced bone loss", "settings": "mice, model for post-menopausal osteoporosis; cited from earlier work"}, "[4]": {"settings": "competition with 0.5 nM [3H]CP-55,940, HEK293 membranes expressing human CB2, read-out: human CB2 binding (Ki)"}}, "note": "Read-outs that look alike come from different tables or passages of the source."}
{"compound": "CN1CCCCC1Cn1cc(C(=O)c2cc([N+](=O)[O-])ccc2I)c2ccccc21", "note": "(stereo not shown) [AM-1241]", "values": [{"measurement": "analgesic efficacy", "setting": "animal models of pain", "result": "robust analgesic efficacy"}]}
{"compound": "CCCCn1nc(C(C)(C)C)s/c1=N\\C(=O)c1cc(C(F)(F)F)ccc1CN1CC(C(=O)OC)C1", "note": "[Example 21, methyl 1-[2-({[(2Z)-3-butyl-5-tert-butyl-1,3,4-thiadiazol-2(3H)-ylidene]amino}carbonyl)-4-(trifluoromethyl)benzyl]azetidine-3-carboxylate]", "values": [{"measurement": "Ki", "setting": "rat CB2 receptors", "result": 0.00179, "unit": "µM"}, {"measurement": "Ki", "setting": "human CB2 receptors", "result": 0.00393, "unit": "µM"}]}
{"compound": "CCCCn1nc(C(C)(C)C)s/c1=N\\C(=O)c1cc(C(F)(F)F)ccc1CN1CC(C(C)(C)O)C1", "note": "[Example 22, N-[(2Z)-3-butyl-5-tert-butyl-1,3,4-thiadiazol-2(3H)-ylidene]-2-{[3-(1-hydroxy-1-methylethyl)azetidin-1-yl]methyl}-5-(trifluoromethyl)benzamide]", "values": [{"measurement": "Ki", "setting": "rat CB2 receptors", "result": 0.00214, "unit": "µM"}, {"measurement": "Ki", "setting": "human CB2 receptors", "result": 0.00533, "unit": "µM"}]}
{"compound": "CCCCn1/c(=N/C(=O)c2cc(C(F)(F)F)ccc2CC(=O)OC(C)(C)C)cc(C(C)(C)C)n1C", "note": "[Example 23, tert-butyl[2-({[(3E)-2-butyl-5-tert-butyl-1-methyl-1,2-dihydro-3H-pyrazol-3-ylidene]amino}carbonyl)-4-(trifluoromethyl)phenyl]acetate]", "values": [{"measurement": "Ki", "setting": "rat CB2 receptors", "result": 0.0802, "unit": "µM"}, {"measurement": "Ki", "setting": "human CB2 receptors; [4]", "result": 0.269, "unit": "µM"}]}
{"compound": "CCCCn1/c(=N/C(=O)c2cc(C(F)(F)F)ccc2CN2CC(O)C2)cc(C(C)(C)C)n1C", "note": "[Example 24, N-[(3E)-2-butyl-5-tert-butyl-1-methyl-1,2-dihydro-3H-pyrazol-3-ylidene]-2-[(3-hydroxyazetidin-1-yl)methyl]-5-(trifluoromethyl)benzamide]", "values": [{"measurement": "Ki", "setting": "rat CB2 receptors", "result": 0.0875, "unit": "µM"}, {"measurement": "Ki", "setting": "human CB2 receptors; [4]", "result": 0.117, "unit": "µM"}]}
{"compound": "CCCCn1/c(=N/C(=O)c2cc(C(F)(F)F)ccc2COCC(C)(C)O)cc(C(C)(C)C)n1C", "note": "[Example 25, N-[(3E)-2-butyl-5-tert-butyl-1-methyl-1,2-dihydro-3H-pyrazol-3-ylidene]-2-[(2-hydroxy-2-methylpropoxy)methyl]-5-(trifluoromethyl)benzamide]", "values": [{"measurement": "Ki", "setting": "rat CB2 receptors", "result": 0.0178, "unit": "µM"}, {"measurement": "Ki", "setting": "human CB2 receptors", "result": 0.025, "unit": "µM"}]}
{"compound": "COc1ccc2c(c1)c(CCN1CCOCC1)c(C)n2C(=O)c1cccc(Cl)c1Cl", "note": "[GW405833]", "values": [{"measurement": "efficacy in pain models", "setting": "rodent models of pain", "result": "efficacious"}]}
{"compound": "CCCCCCC(C)(C)c1cc(OC)c([C@@H]2C=C(CO)[C@@H]3C[C@H]2C3(C)C)c(OC)c1", "note": "[HU-308]", "values": [{"measurement": "antinociceptive response", "setting": "[1]", "result": "elicits an antinociceptive response"}]}
{"compound": "CCCC(C)(C)c1ccc2c(c1)OC(C)(C)[C@@H]1CC=C(C)C[C@@H]21", "note": "[JWH-133]", "values": [{"measurement": "effect on β-amyloid-induced microglial activation and neurotoxicity", "setting": "microglial activation", "result": "abrogated"}]}
{"compound": "(−)-Δ^9-Tetrahydrocannabinol [THC]", "values": [{"measurement": "progression of atherosclerotic lesions", "setting": "[2]; low doses", "result": "slowed the progression"}]}
{"compound": "SR144528", "values": [{"measurement": "effect on osteoclast activity", "setting": "osteoclast activity", "result": "inhibit"}, {"measurement": "effect on ovariectomy-induced bone loss", "setting": "[3]", "result": "reverse"}, {"measurement": "blockade of JWH-133 effects on β-amyloid-induced microglial activation and neurotoxicity", "setting": "microglial activation", "result": "blocked"}, {"measurement": "inhibition of THC effects on atherosclerotic lesions", "setting": "[2]", "result": "inhibited"}]}
